Measurements from publication PMC6936217 (Science translational medicine, 2019).
pIC50: −log10 of the molar value. Read-outs that look alike come from different tables or passages of the source.

How the values were obtained:
EBNA1 = EBNA1 (Epstein-Barr virus, UniProt P03211); assay: ALPHA proximity DNA binding assay
15N-labeled EBNA1 = 15N-labeled EBNA1 (Epstein-Barr virus, UniProt P03211); assay: HSQC NMR with 15N-labeled EBNA1; assay type: binding; conditions: 50 μM ligand
[1] = read-out: IC50, inhibition of EBNA1 DNA binding, ALPHA proximity assay

Sequence of EBNA1 (P03211 459-607): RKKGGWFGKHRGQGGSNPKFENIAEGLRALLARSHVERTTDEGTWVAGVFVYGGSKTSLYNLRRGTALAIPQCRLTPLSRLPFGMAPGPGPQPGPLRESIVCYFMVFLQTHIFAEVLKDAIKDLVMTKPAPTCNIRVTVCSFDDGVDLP
Sequence of 15N-labeled EBNA1 (P03211 459-607): as above

O=C(O)c1ccccc1-n1cccc1 [VK-0064, 2-pyrrolo-benzoic acid]
pIC50 (EBNA1; [1]): 5.70

O=C(O)c1cncc(C#Cc2ccccc2)c1 [VK-0044, 5-phenylacetylenyl nicotinic acid]
pIC50 (EBNA1): 3.96

O=C(O)c1cccc(C#Cc2ccccc2)c1-n1cccc1 [VK-0497, 2-pyrrolo-3-phenylacetylenyl benzoic acid]
pIC50 (EBNA1; [1]): 6.05 | binding to EBNA1 by chemical shift changes (15N-labeled EBNA1): direct binding
